Source: ChEMBL document CHEMBL2095176, “GSK Tuberculosis Screening Data”
≈ marks a conversion by molar mass, not a printed value.

System: Mycobacterium tuberculosis variant bovis BCG
Experiment: microbe, parasite or virus in culture
Assay type: functional

O=C(Nc1ccc2c(c1)OCC(=O)N2Cc1ccccc1Cl)NC1CCCCC1
MIC90: 5.7 µM (≈ 2.36 µg/mL)

c1ccc(-c2nc(N3CCCCCC3)nc(-n3ccnc3)n2)cc1
MIC90: 9.6 µM (≈ 3.08 µg/mL)

COc1cc(-c2ccccc2)c(Cl)cc1C(=O)Nc1cccc2c1CCN(C)C2
MIC90: 5.9 µM (≈ 2.4 µg/mL)

CC(Sc1nc2ccccc2[nH]1)C(=O)NNC(=O)c1ccncc1 (stereo unspecified)
MIC90: 1.6 µM (≈ 0.546 µg/mL)

COc1cc(/C=C/C(=O)O)ccc1OCCN1CCCCCC1
MIC90: 7 µM (≈ 2.24 µg/mL)

N#Cc1nc(-c2cccs2)oc1S(=O)(=O)c1ccc(Br)cc1
MIC90: 2.9 µM (≈ 1.15 µg/mL)

CCc1ccc(CN2CCC3(CC2)OCCc2sccc23)s1
MIC90: 0.5 µM (≈ 0.167 µg/mL)

CCCCOc1ccc(C(=O)Nc2nnc(-c3ccccc3)o2)cc1
MIC90: 3.1 µM (≈ 1.05 µg/mL)

CCOc1cc(OC)c(C(=O)Nc2cccc3c2CCN(C)C3C)cc1Cl (stereo unspecified)
MIC90: 5.6 µM (≈ 2.18 µg/mL)

c1ccc(-c2csc(CN3CCC4(CC3)OCCc3sccc34)c2)cc1
MIC90: 2.7 µM (≈ 1.03 µg/mL)

O=S(=O)(CCNCC1CC1)c1cccc(Nc2ccc(-c3cccc(F)c3)cn2)c1
MIC90: 5.3 µM (≈ 2.26 µg/mL)

CCc1c(C)nc(-n2nc(C)cc2NC(=O)c2ccc(OC)cc2OC)[nH]c1=O
MIC90: 1.2 µM (≈ 0.477 µg/mL)

Cc1ccc2[nH]c(SCC(=O)NNC(=O)c3cccs3)nc2c1
MIC90: 5.9 µM (≈ 2.04 µg/mL)

OC1(c2ccccc2)Oc2ccccc2N=C1c1ccccc1 (stereo unspecified)
MIC90: 4.8 µM (≈ 1.45 µg/mL)

O=C(OCc1c(F)cccc1Cl)c1ccc(-n2ncc(Cl)c(Cl)c2=O)cc1
MIC90: 3.7 µM (≈ 1.58 µg/mL)

COc1ccc(Nc2ccccc2N)cc1
MIC90: 1.1 µM (≈ 0.236 µg/mL)

Cc1nc2c(C)cccn2c1C(=O)NCc1ccc2c(c1)OCO2
MIC90: 9.5 µM (≈ 3.07 µg/mL)

Cc1nnc(SCC(=O)NNC(=O)c2ccco2)nc1O
MIC90: 3 µM (≈ 0.928 µg/mL)

Cc1nc(-c2cccnc2)nc(N2CCCN(Cc3ccc(F)cc3)CC2)c1Cl
MIC90: 5.5 µM (≈ 2.27 µg/mL)

N[C@@H]1CCN(c2nc(-c3ccccc3)nc3ccccc23)C1
MIC90: 1.4 µM (≈ 0.407 µg/mL)

CCCOC(=O)COc1ccc2c(=O)c(-c3ccccc3OC)coc2c1
MIC90: 9.8 µM (≈ 3.61 µg/mL)

O=C(CCc1cccs1)Nc1nc(-c2ccccn2)cs1
MIC90: 6.4 µM (≈ 2.02 µg/mL)

O=C(NNC(=O)N1CCN(C(c2ccccc2)c2ccc(Cl)cc2)CC1)c1ccc([N+](=O)[O-])o1 (stereo unspecified)
MIC90: 1.1 µM (≈ 0.532 µg/mL)

Cc1ccc(C)c(-c2nnc(NC(=O)c3ccc4c(c3)CCCC4)o2)c1
MIC90: 3 µM (≈ 1.04 µg/mL)

Cc1ccc(N2C(=O)NC(=O)C(=Cc3ccc[nH]3)C2=O)cc1
MIC90: 8.8 µM (≈ 2.6 µg/mL)

CCc1ccc(S(=O)(=O)Nc2cc(CN3CCN(CCC(C)C)CC3)ccc2C)cc1.O=C(O)C(F)(F)F.O=C(O)C(F)(F)F
MIC90: 6.3 µM

O=C(Nc1ccc(C(=O)Nc2cccc(C3=NCCN3)c2)cc1)Nc1ccc(C2=NCCN2)cc1
MIC90: 4.6 µM (≈ 2.15 µg/mL)

COc1cc(CCN2CC[C@H](NC(=O)c3ccc(Cl)c(Cl)c3)C2)ccc1OC1CCNCC1
MIC90: 7 µM (≈ 3.45 µg/mL)

COc1cc2ccccc2cc1C(=O)NCc1cccc(-c2ccccc2OC)c1
MIC90: 3.6 µM (≈ 1.43 µg/mL)

O=C(NNC(=O)c1[nH]nc2ccccc12)c1ccco1
MIC90: 8.3 µM (≈ 2.24 µg/mL)

CN(C)c1nc2scc(-c3ccccc3)c2c(=O)o1
MIC90: 1.5 µM (≈ 0.408 µg/mL)

c1ccc(-c2csc(Nc3nc4cc5c(cc4s3)OCO5)n2)nc1
MIC90: 1.5 µM (≈ 0.532 µg/mL)

CN(CCOc1cccc(-c2ccc(C(=O)N3CCCC3)cc2)c1)Cc1ccc(F)cc1
MIC90: 7.8 µM (≈ 3.37 µg/mL)

Cc1nc2ccccn2c1C(=O)NCc1cccs1
MIC90: 3.9 µM (≈ 1.06 µg/mL)

Cc1ccc(-c2nnc(NC(=O)c3cccc(C(F)(F)F)c3)o2)c(C)c1
MIC90: 4.4 µM (≈ 1.59 µg/mL)

CCOc1ccc(-c2nc(NC(=O)C3CCCN3S(=O)(=O)c3cccs3)sc2C)cc1 (stereo unspecified)
MIC90: 2 µM (≈ 0.955 µg/mL)

O=C(Nc1nnc(SCc2ccc(Cl)cc2)s1)c1ccccn1
MIC90: 4 µM (≈ 1.45 µg/mL)

O=C(Nc1nnc(-c2ccc(Br)cc2)o1)c1cccc(F)c1
MIC90: 2.2 µM (≈ 0.797 µg/mL)

COc1ccc(S(=O)(=O)CC(=O)N(CCN(C)C)c2nc3c(C)ccc(Cl)c3s2)cc1
MIC90: 7 µM (≈ 3.37 µg/mL)

C[C@@H](NCCc1nc(-c2cn(C)c3ccccc23)no1)C1CCCCC1.Cl
MIC90: 9.4 µM

Cc1cccc(C)c1CNc1c(C(N)=O)cnc2c(C)cccc12
MIC90: 5.9 µM (≈ 1.88 µg/mL)

FC(F)(F)c1ccc2c(N3CCCNCC3)ncc(-c3ccsc3)c2n1
MIC90: 1.8 µM (≈ 0.681 µg/mL)

O=C(Cc1ccc(Cl)cc1)Nc1nc(-c2ccccn2)cs1
MIC90: 4.3 µM (≈ 1.42 µg/mL)

CCN(Cc1ccc(Cl)s1)C(=O)CSc1nc(NC)c2ccccc2n1
MIC90: 9.1 µM (≈ 3.7 µg/mL)

Oc1nc(-c2ccccn2)nc(C(F)(F)F)c1Br
MIC90: 9.6 µM (≈ 3.07 µg/mL)

COCCN1CCN(c2ncc(-c3ccccc3OCc3cc(C)on3)cn2)CC1
MIC90: 4.4 µM (≈ 1.8 µg/mL)

c1ccc(Nc2cc(-c3ccccc3)nc(-c3ccccn3)n2)cc1
MIC90: 3.7 µM (≈ 1.2 µg/mL)

COc1ccc(-c2nsc(NC(=O)COc3ccc(C)cc3)n2)cc1OC
MIC90: 4.7 µM (≈ 1.81 µg/mL)

O=C(O)c1ccccc1COc1ccccc1
MIC90: 0.5 µM (≈ 0.114 µg/mL)

CN(C)C1CCN(C(=O)c2csc(-c3cccc(Cl)c3Cl)n2)C1 (stereo unspecified)
MIC90: 8.5 µM (≈ 3.15 µg/mL)

CN(CCOc1cccc(-c2ccc(C(=O)N3CCCC3)cc2)c1)Cc1cc(-c2ccccc2)no1
MIC90: 3.1 µM (≈ 1.49 µg/mL)

Cc1cc(C)cc(Oc2c(C(C)C)c(=O)[nH]c(=O)n2Cc2cc(N)nc(F)c2)c1
MIC90: 9.8 µM (≈ 3.9 µg/mL)

CN1CCCN(c2ncnc3sc(-c4ccccc4)cc23)CC1
MIC90: 7.4 µM (≈ 2.4 µg/mL)

CN(C)CCOc1ccc2c(c1)N(C(=O)Cc1ccc(Cl)c(Cl)c1)CC2
MIC90: 9.9 µM (≈ 3.89 µg/mL)

Cc1c(Cl)cc(F)cc1S(=O)(=O)NCCCn1nc(Cl)c(N2CCCNCC2)cc1=O
MIC90: 7.9 µM (≈ 3.89 µg/mL)

Cc1cc(C)n(Cc2ccc(C(=O)NC3CCC(C(C)(C)C)CC3)cc2)n1 (stereo unspecified)
MIC90: 6.5 µM (≈ 2.39 µg/mL)
